Measured values reported in article PMC8308585, “Design and Synthesis of Novel Thiazolo[5,4-d]pyrimidine Derivatives with High Affinity for Both the Adenosine A1 and A2A Receptors, and Efficacy in Animal Models of Depression” (Pharmaceuticals, 2021).

Key:
mice [1] = assay: Tail suspension test; type: in vivo; conditions: mouse TST, 15 mg kg^−1 s.c., single dose, mean ± SEM of 10 mice; vehicle 99.0 ± 6.8
Experimental: (§1) To execute the tests, mice were divided into groups, each of which consisted of 10 animals. The tests were performed after a single p.o. administration of compound 18 at different dosages (10 mg Kg^−1 and 30 mg Kg^−1). Amitriptyline (15 mg Kg^−1) was used as the reference drug. Compounds were acutely administrated 26 min before the beginning of the experiment. In the FST (Table 4), the duration of immobility was recorded during the last 4 min of the 6 min test.
A decrease in the duration of immobility is indicative of an antidepressant-like effect. […] Accordingly, a similar activity was shown in the tail suspension test (Table 5) where the immobility time was measured in the first 2 min, when animals react to the inescapable stress, and in the last 4 min of the test, when the behavioral despair is established. Immobility was defined as the absence of any limb or body movements, except those caused by respiration. A reduction in the duration of the immobility time is indicative of an antidepressant-like effect.
Male CD-1 albino mice (22–25 g; Envigo, Varese, Italy) were housed in CeSAL (Centro Stabulazione Animali da Laboratorio, University of Florence, Florence, Italy) and used at least one week after their arrival. Animals were housed in 26 cm × 41 cm cages (12 mice each) and fed with a standard laboratory diet and tap water ad libitum. They were kept at 23 ± 1 °C with a 12 h light/dark cycle, light at 7 a.m. […]
A piece of tape was adhered to the upper middle of the tail of each animal, creating a flap with the overlap of tape. […] The duration of the test was 6 min and the immobility time was measured in the first 2 min, when animals react to the inescapable stress, and in the last 4 min of the test, when the behavioral despair is established. […]
Behavioral tests were performed by visual observation by researchers blinded to the treatments. Results were expressed as means ± SEM, variance was analyzed by ANOVA. […] Data were analyzed using the “Origin 8.1” software.

mice [2] = assay: Sucrose preference test, LPS-induced anhedonia; type: in vivo, mouse; conditions: LPS 1.25 mg kg^−1 i.p. mice, 15 mg kg^−1 s.c. same protocol
Experimental: Anhedonia, or the inability to experience pleasure, is a common symptom of depression. The mood regulatory role of 18 was studied against anhedonia evaluated in the sucrose preference test in animals treated with lipopolysaccharide (LPS), a model of neuroinflammation-induced depressive-like syndrome. Compound 18 (10 mg kg^−1 and 30 mg kg^−1) was daily p.o administered for five consecutive days. Twenty-four hours after the last 18 treatment, LPS 1.25 mg kg^−1 was intraperitoneally injected. Immediately after LPS injection, mice were placed in cages equipped with two bottles: a bottle of 2% sucrose solution and a bottle of water (unsweetened tap water). The consumption of the 2% sucrose solution was evaluated 6 h and 24 h after LPS injection. Amitriptyline (15 mg kg^−1) was used as the reference drug administered following the same protocol.
(§2) Male CD-1 albino mice (22–25 g; Envigo, Varese, Italy) were housed in CeSAL (Centro Stabulazione Animali da Laboratorio, University of Florence, Florence, Italy) and used at least one week after their arrival. Animals were housed in 26 cm × 41 cm cages (12 mice each) and fed with a standard laboratory diet and tap water ad libitum. They were kept at 23 ± 1 °C with a 12 h light/dark cycle, light at 7 a.m. Compound 18 was administered per o.s. whereas amitriptyline was by a s.c. route following the most widely used approach reported in the literature.
Lipopolysaccharide (LPS) from Escherichia coli was purchased from Sigma-Aldrich, (Milan, Italy) freshly dissolved in sterile saline, and injected intraperitoneally (i.p.) at the dose of 1.25 mg kg^−1 [49] after five consecutive days of treatment with compound 18, 1 h after the last administration of the compound. Behavioral tests were performed before 6 h and 24 h after LPS administration.
Mice were placed in cages equipped with a couple of bottles, one containing 2% sucrose solution, the second with water (unsweetened tap water). The consumption of the 2% sucrose solution was evaluated 6 h and 24 h after the beginning of the experiment. The preference index was calculated according to the following formula: preference index = volume consumed sucrose solution/(volume consumed sucrose solution + volume consumed water).
(§3) Behavioral tests were performed by visual observation by researchers blinded to the treatments. Results were expressed as means ± SEM, variance was analyzed by ANOVA. A Bonferroni’s significant difference procedure was used as post-hoc comparison. p values of less than 0.05 and 0.01 were considered significant. Data were analyzed using the “Origin 8.1” software.

mice [3] = assay: Forced swimming test; type: in vivo, mouse; conditions: mouse FST, 15 mg kg^−1 s.c., single dose 26 min before test, last 4 min of 6 min, mean ± SEM of 10 mice; vehicle 193.7 ± 8.9
Experimental: as §1, §2
Mice were individually placed into glass cylinders (height: 25 cm, diameter: 10 cm) containing 12 cm of water maintained at 22–23 °C for 6 min. Immobility was considered the animal floated in the water, in an upright position, and made only small movements to keep its head above water. The immobility time was recorded during the last 4-min of the 6-min test. A decrease in the duration of immobility is indicative of an antidepressant-like effect.
as §3

hA2B AR = target: T1, hA2B AR (Homo sapiens, UniProt P29275); set-up: method as in PMID 30638876; conditions: inhibition of NECA-stimulated adenylyl cyclase activity, CHO cells; ref [34]; cited from earlier work
T1 construct: expressed in transfected cells; host or cells: CHO cells
T1 sequence (P29275 1-332): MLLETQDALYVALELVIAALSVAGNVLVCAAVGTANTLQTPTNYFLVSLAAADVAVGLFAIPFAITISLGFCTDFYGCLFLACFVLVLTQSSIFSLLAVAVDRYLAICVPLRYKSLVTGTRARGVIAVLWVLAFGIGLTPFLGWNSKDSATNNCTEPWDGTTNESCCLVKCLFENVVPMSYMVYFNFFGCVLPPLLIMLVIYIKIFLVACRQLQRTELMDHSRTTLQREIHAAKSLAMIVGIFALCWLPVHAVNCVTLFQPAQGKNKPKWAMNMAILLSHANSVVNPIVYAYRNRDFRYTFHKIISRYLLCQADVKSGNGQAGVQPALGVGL

Row | Structure (SMILES) | Immobility Time (mice [1]) [s] | Sucrose Preference (%), 6 h (mice [2]; 6 h after LPS, vehicle + LPS 42.3 ± 3.1) [%] | Sucrose Preference (%), 24 h (mice [2]; 24 h after LPS, vehicle + LPS 38.0 ± 5.6) [%] | Immobility Time (mice [3]) [s] | IC50 (hA2B AR) [µM]
1 | CN(C)CCC=C1c2ccccc2CCc2ccccc21 [amitriptyline, reference compound] | 61.6 ± 8.4 | 69.1 ± 4.8 | 70.3 ± 6.4 | 149.4 ± 4.6 | –
2 | Nc1nc(-c2ccccc2)nc2sc(-c3ccccc3)nc12 [compound 20] | – | – | – | – | > 30
